In US7011826B1, “Control of acidosis” (priority 1999, dated 2006):

How the values were obtained:
[1] = test system: Clostridium-like vitulinus (LV R3); assay: Virginiamycin sensitivity test (broth growth); type: cell-based; settings: Basal Medium 10 with glucose (0.5%)
Experimental: (§1) Two isolates of S. bovis from cattle and sheep (orange pigmented and white), five Clostridium-like vitulinus and three isolates of S. ruminantium were incubated in a branch of basal medium 10 with glucose (0.5%) and virginiamycin (VM) at a concentrations of 0, 2, 4, 6 and 8 μg/ml. The virginiamycin solution (100 μg VM/ml) was prepared using Eskalin Wettable Powder (WP), 400 g/kg VM (Pfizer Animal Health, NSW, Australia). The WP was dissolved in distilled water (previously boiled and bubbled with nitrogen until cooled) and filter-sterilised whilst being gassed with nitrogen. This solution was used immediately after preparation. […] The broth-media was inoculated by 0.2 ml of the different fresh viable cultures and 0.1–0.4 ml of VM solution was added to each tube to provide the required dose. A sensitivity test was also performed when VM was added 3 and 6 h after inoculation, using the same concentrations of VM. Tests for sensitivity to VM were conducted using […] of anaerobic incubation at 39° C.

[2] = test system: Clostridium-like vitulinus (LV R4); assay: Virginiamycin sensitivity test (broth growth); type: cell-based; settings: Basal Medium 10 with glucose (0.5%)
Experimental: as §1

[3] = test system: Clostridium-like vitulinus (LV R5); assay: Virginiamycin sensitivity test (broth growth); type: cell-based; settings: Basal Medium 10 with glucose (0.5%)
Experimental: as §1

[4] = test system: Clostridium-like vitulinus (LV R2); assay: Virginiamycin sensitivity test (broth growth); type: cell-based; settings: Basal Medium 10 with glucose (0.5%)
Experimental: as §1

[5] = test system: S. ruminantium (SR R1, SR R2 and SR R3); assay: Virginiamycin sensitivity test (broth growth); type: cell-based; settings: Basal Medium 10 with glucose (0.5%)
Experimental: as §1

[6] = test system: Clostridium-like vitulinus (LV R1); assay: Virginiamycin sensitivity test (broth growth); type: cell-based; settings: Basal Medium 10 with glucose (0.5%)
Experimental: as §1

[7] = test system: Clostridium-like isolates; assay: Virginiamycin sensitivity test, VM added 3 and 6 h after inoculation; type: cell-based, Clostridium-like vitulinus
Experimental: as §1

dogs [8] = assay: Faecal characteristics of dog fed dry dog food with virginiamycin; type: in vivo; settings: one dog, virginiamycin 0.5 mg/kg body weight for 7 days
Experimental: Two dogs were fed a commercial dry dog food for 4 weeks before and then during the experimental period. Virginiamycin (Eskalin 20) was added to the diet of one dog for a period of 7 days prior to faecal sampling to provide 0.5 mg/kg body weight. Samples of faeces were taken for the analysis of pH and lactic acid concentrations at the same time as those taken for isolation of lactic acid producing bacteria.

dogs [9] = assay: Virginiamycin dose trial in dogs fed tinned dog food with added raftilose (faecal measurements); type: in vivo; design: faecal Dry matter / faecal Total VFA: unit not given here; settings: for faecal pH: raftilose diet; for faecal Consistency score: 5 = firm, normal faeces and 1 = diarrhoea
Experimental: The main objective of this trial was to investigate various doses of virginiamycin in terms of its effect on faecal consistency and hind gut fermentation.
Design: There were 4 treatment groups consisting of unmedicated control, and virginiamycin at 3 levels: 0.25, 0.5 and 1 mg/kg body weight. Dogs were acclimatised to a dict based on the tinned ‘No Frills’ dog food for approximately 2 weeks prior to a seven-day treatment period in which fructo-oligosaccharide raftilose was added to the diet at a rate of 3.5 g/kg metabolic body weight. There were five dogs per treatment.
Measurements were made of faecal pH, dry matter, consistency and chemical assays were conducted to measure VFA, D-lactic acid and L-lactic acid.

[10] = VM 0.25, 0.5 and 1 mg/kg body weight

virginiamycin
VM level the isolate resisted up to [1]: 4 µg/mL
VM level the isolate resisted up to [2]: 6 µg/mL
MIC level [3]: 2 µg/mL
VM level the isolate resisted up to [4]: 4 µg/mL
highest VM level to which isolates were resistant [5]: 8 µg/mL
MIC level [6]: 2 µg/mL
MIC compared with VM added immediately after inoculation ([7]; cultures growing 3 h before addition of VM): higher MIC
highest VM level to which isolates were resistant ([7]; cultures grown 6 h before addition of VM, all Clostridium-like isolates): 8 µg/mL
D(−)Lactate in faeces (dogs [8]): 0.45 mmol/L
L(+)Lactate in faeces (dogs [8]): 0.34 mmol/L
faecal pH (dogs [8]): 5.34
faecal D-lactic acid concentration (dogs [9]; VM 0.25 mg/kg body weight): 0.2
faecal Dry matter (dogs [9]; VM 0.25 mg/kg body weight): 22.0
faecal L-lactic acid concentration (dogs [9]; VM 0.25 mg/kg body weight): 2.2
faecal Total VFA (dogs [9]; VM 0.25 mg/kg body weight): 80.5
faecal pH (dogs [9]; VM 0.25 mg/kg body weight): 5.2
faecal Consistency score (dogs [9]; VM 0.25 mg/kg): 3.6
faecal D-lactic acid concentration (dogs [9]; VM 0.5 mg/kg body weight): 0.4
faecal Dry matter (dogs [9]; VM 0.5 mg/kg body weight): 22.5
faecal L-lactic acid concentration (dogs [9]; VM 0.5 mg/kg body weight): 13.8
faecal Total VFA (dogs [9]; VM 0.5 mg/kg body weight): 93.7
faecal pH (dogs [9]; VM 0.5 mg/kg body weight): 4.9
faecal Consistency score (dogs [9]; VM 0.5 mg/kg): 3.7
faecal D-lactic acid concentration (dogs [9]; VM 1.0 mg/kg body weight): 0.3
faecal Dry matter (dogs [9]; VM 1.0 mg/kg body weight): 24.2
faecal L-lactic acid concentration (dogs [9]; VM 1.0 mg/kg body weight): 11.8
faecal Total VFA (dogs [9]; VM 1.0 mg/kg body weight): 73.5
faecal pH (dogs [9]; VM 1.0 mg/kg body weight): 4.9
faecal Consistency score (dogs [9]; VM 1.0 mg/kg): 3.8
effect on L-lactic (dogs [9]; [10]): little effect
effect on the pH, faecal consistency, dry matter content and VFA concentrations (dogs [9]; [10]): little effect
effect on concentration of d-lactic acid (dogs [9]; all levels of inclusion): reduce the concentration of d-lactic acid
